“And” between values parts separate entries of the source, which are not always exact repeats. Identical values can stand only once. Inconclusive results and toxic doses are left out.
Test system: L1210 leukemia ip in BDF1 mice, survival T/C
Assay: NCI In Vivo Anticancer Drug Screen. Data for tumor model L1210 Leukemia (intraperitoneal) in B6D2F1 (BDF1) mice
Conditions: endpoint: mean survival time, higher = longer survival
How it was run: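 Value reflects the ratio of survival in compound-treated mice to survival in vehicle-treated controls, with both groups carrying the same transplanted tumor.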

[1] = dose: 100.0 mg/kg/injection, schedule: Q04DX003 (ip), vehicle: saline with Tween-80
[2] = dose: 200.0 mg/kg/injection, schedule: Q04DX003 (ip), vehicle: saline with Tween-80

`O=C(CBr)Nc1ccc(Cl)cc1` was tested, and the T/C (dose: 2.0 mg/kg/injection, schedule: Q04DX003 (ip), vehicle: Klucel (hydroxypropylcellulose) (HPC)) was 96 % of control, the T/C (dose: 3.12 mg/kg/injection, schedule: Q01DX009 (ip), vehicle: Klucel (hydroxypropylcellulose) (HPC)) was 92 % of control and the T/C (dose: 4.0 mg/kg/injection, schedule: Q04DX003 (ip), vehicle: Klucel (hydroxypropylcellulose) (HPC)) was 104 % of control. The T/C (dose: 6.25 mg/kg/injection, schedule: Q01DX009 (ip), vehicle: Klucel (hydroxypropylcellulose) (HPC)) was 102 % of control, the T/C (dose: 9.0 mg/kg/injection, schedule: Q04DX003 (ip), vehicle: Klucel (hydroxypropylcellulose) (HPC)) was 100 % of control and the T/C (dose: 12.5 mg/kg/injection, schedule: Q01DX009 (ip), vehicle: Klucel (hydroxypropylcellulose) (HPC)) was 89 % of control. The T/C (dose: 19.0 mg/kg/injection, schedule: Q04DX003 (ip), vehicle: Klucel (hydroxypropylcellulose) (HPC)) was 104 % of control and 91 % of control, the T/C (dose: 25.0 mg/kg/injection, schedule: Q01DX009 (ip), vehicle: Klucel (hydroxypropylcellulose) (HPC)) was 89 % of control and the T/C (dose: 50.0 mg/kg/injection, schedule: Q01DX001 (ip), vehicle: other) was 95 % of control. The T/C (dose: 100.0 mg/kg/injection, schedule: Q01DX001 (ip), vehicle: other) was 101 % of control.
In the case of `O=C(c1ccccc1)c1ccc(Oc2ccccc2)cc1`, the T/C (dose: 100.0 mg/kg/injection, schedule: Q04DX003 (ip), vehicle: gum acacia) is reported as 91 % of control, the T/C (dose: 200.0 mg/kg/injection, schedule: Q04DX003 (ip), vehicle: gum acacia) is reported as 97 % of control and the T/C (dose: 400.0 mg/kg/injection, schedule: Q04DX003 (ip), vehicle: gum acacia) is reported as 91 % of control.
For `CCS(=O)(=O)c1ncc2cnccn12`, the T/C (dose: 50.0 mg/kg/injection, schedule: Q01DX009 (ip), vehicle: water) was 98 % of control, the T/C (dose: 100.0 mg/kg/injection, schedule: Q01DX009 (ip), vehicle: water) was 98 % of control and 101 % of control and the T/C (dose: 100.0 mg/kg/injection, schedule: Q04DX003 (ip), vehicle: water) was 93 % of control. For the same compound, the T/C (dose: 200.0 mg/kg/injection, schedule: Q01DX009 (ip), vehicle: water) was 105 % of control and 110 % of control and the T/C (dose: 200.0 mg/kg/injection, schedule: Q04DX003 (ip), vehicle: water) was 95 % of control.
With `CC1=NN(c2cccc(S(=O)(=O)O)c2)C(=O)C1` the T/C [1] was 105 % of control, the T/C [2] was 101 % of control and the T/C (dose: 400.0 mg/kg/injection, schedule: Q04DX003 (ip), vehicle: saline with Tween-80) was 89 % of control.
`ClC(Cc1ccccc1)c1ccccc1` (stereo not drawn) was tested, and the T/C (dose: 50.0 mg/kg/injection, schedule: Q01DX001 (ip), vehicle: saline) was 97 % of control, the T/C (dose: 100.0 mg/kg/injection, schedule: Q01DX001 (ip), vehicle: saline) was 97 % of control and the T/C (dose: 200.0 mg/kg/injection, schedule: Q01DX001 (ip), vehicle: saline) was 97 % of control. For the same compound, the T/C (dose: 400.0 mg/kg/injection, schedule: Q01DX001 (ip), vehicle: saline) was 97 % of control.
With `COc1cc(C=Nc2cc(Br)cc(Br)c2)ccc1N(CCCl)CCCl` the T/C (dose: 1.31 mg/kg/injection, schedule: Q01DX009 (ip), vehicle: other) was 113 % of control, the T/C (dose: 2.62 mg/kg/injection, schedule: Q01DX009 (ip), vehicle: other) was 104 % of control and the T/C (dose: 12.5 mg/kg/injection, schedule: Q01DX001 (ip), vehicle: other) was 106 % of control. For the same compound, the T/C (dose: 25.0 mg/kg/injection, schedule: Q01DX001 (ip), vehicle: other) was 120 % of control, the T/C (dose: 50.0 mg/kg/injection, schedule: Q01DX009 (ip), vehicle: other) was 124 % of control and the T/C (dose: 118.0 mg/kg/injection, schedule: Q01DX001 (ip), vehicle: carboxymethylcellulose (CMC)) was 123 % of control. For the same compound, the T/C (dose: 177.0 mg/kg/injection, schedule: Q01DX001 (ip), vehicle: carboxymethylcellulose (CMC)) was 94 % of control and 108 % of control, the T/C (dose: 200.0 mg/kg/injection, schedule: Q01DX001 (ip), vehicle: carboxymethylcellulose (CMC)) was 124 % of control and the T/C (dose: 266.0 mg/kg/injection, schedule: Q01DX001 (ip), vehicle: carboxymethylcellulose (CMC)) was 88 % of control. For the same compound, the T/C (dose: 400.0 mg/kg/injection, schedule: Q01DX001 (ip), vehicle: carboxymethylcellulose (CMC)) was 179 % of control.
For `O=C(/C=C/c1ccccc1)N1CC2CCC(CC2)C1`, the T/C [1] was 95 % of control and the T/C [2] was 93 % of control.
With `NCC(NCc1ccccc1)(c1ccccc1)c1ccccc1` the T/C (dose: 20.0 mg/kg/injection, schedule: Q04DX003 (ip), vehicle: Klucel (hydroxypropylcellulose) (HPC)) was 94 % of control, the T/C (dose: 40.0 mg/kg/injection, schedule: Q04DX003 (ip), vehicle: Klucel (hydroxypropylcellulose) (HPC)) was 96 % of control and the T/C (dose: 80.0 mg/kg/injection, schedule: Q04DX003 (ip), vehicle: Klucel (hydroxypropylcellulose) (HPC)) was 102 % of control.
In the case of `CCOC(=O)C1C(C)NC(=S)NC1c1ccccc1` (stereo not drawn), the T/C (dose: 100.0 mg/kg/injection, schedule: Q04DX002 (ip), vehicle: Klucel (hydroxypropylcellulose) (HPC)) is reported as 90 % of control, the T/C (dose: 200.0 mg/kg/injection, schedule: Q04DX002 (ip), vehicle: Klucel (hydroxypropylcellulose) (HPC)) is reported as 93 % of control and the T/C (dose: 400.0 mg/kg/injection, schedule: Q04DX002 (ip), vehicle: Klucel (hydroxypropylcellulose) (HPC)) is reported as 93 % of control.

— PubChem BioAssay AID248 (DTP/NCI, 2004)
